Measurements reported in PMC3384240, “Related bifunctional restriction endonuclease-methyltransferase triplets: TspDTI, Tth111II/TthHB27I and TsoI with distinct specificities” (BMC Molecular Biology, 2012).

Molecular target: T1, TspDTI (Thermus sp. DT, UniProt A8QN47)
T1 construct: recombinant from E. coli DH11S [pRZ-TspDTI], one extra Ala codon (GCG) after the start Met; native enzyme from Thermus sp; DT also purified; monomer; N-terminus […]
Test: lambda DNA cleavage, agarose gel
Type: biochemical
Settings: Mg2+ restriction buffer, 70 C, 30 min, allosteric activator (site not established)

T1 sequence (A8QN47 entry or part of it): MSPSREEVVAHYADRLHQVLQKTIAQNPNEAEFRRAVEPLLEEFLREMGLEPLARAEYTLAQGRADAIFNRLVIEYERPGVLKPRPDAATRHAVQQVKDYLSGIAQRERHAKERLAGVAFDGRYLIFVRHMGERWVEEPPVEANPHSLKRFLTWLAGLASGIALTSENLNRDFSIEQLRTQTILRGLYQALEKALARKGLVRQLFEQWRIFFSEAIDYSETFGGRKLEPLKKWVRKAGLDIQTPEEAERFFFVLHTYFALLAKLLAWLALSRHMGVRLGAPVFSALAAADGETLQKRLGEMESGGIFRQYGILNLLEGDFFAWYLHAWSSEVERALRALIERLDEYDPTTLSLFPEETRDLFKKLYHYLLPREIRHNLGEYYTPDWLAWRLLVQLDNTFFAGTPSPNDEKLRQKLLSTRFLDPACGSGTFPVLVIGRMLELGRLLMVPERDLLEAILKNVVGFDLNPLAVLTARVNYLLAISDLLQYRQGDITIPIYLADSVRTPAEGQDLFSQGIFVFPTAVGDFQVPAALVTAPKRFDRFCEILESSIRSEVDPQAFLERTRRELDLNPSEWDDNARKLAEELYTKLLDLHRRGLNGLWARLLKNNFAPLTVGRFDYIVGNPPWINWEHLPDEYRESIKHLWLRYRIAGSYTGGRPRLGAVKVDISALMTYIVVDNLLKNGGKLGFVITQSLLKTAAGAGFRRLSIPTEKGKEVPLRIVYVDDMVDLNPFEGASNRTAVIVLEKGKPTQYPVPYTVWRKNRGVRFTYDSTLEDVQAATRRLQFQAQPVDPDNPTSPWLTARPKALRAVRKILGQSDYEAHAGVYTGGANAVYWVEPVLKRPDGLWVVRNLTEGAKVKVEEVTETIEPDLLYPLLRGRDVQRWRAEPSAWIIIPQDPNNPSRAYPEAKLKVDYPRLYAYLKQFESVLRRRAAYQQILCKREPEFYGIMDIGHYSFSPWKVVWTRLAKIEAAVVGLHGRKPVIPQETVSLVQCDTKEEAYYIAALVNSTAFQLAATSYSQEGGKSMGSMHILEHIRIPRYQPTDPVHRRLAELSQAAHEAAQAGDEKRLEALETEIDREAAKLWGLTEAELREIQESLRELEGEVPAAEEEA

Structure (SMILES)	lambda DNA cleavage, agarose gel (stimulates REase at 50 uM SAM, also methyl donor of the MTase activity (200 uM))	lambda DNA cleavage, agarose gel (stimulates REase at 50 uM SIN, SAM analogue, not a methyl donor)
C[S+](CC[C@H](N)C(=O)O)C[C@H]1O[C@@H](n2cnc3c(N)ncnc32)[C@H](O)[C@@H]1O (some centres unmarked) [SAM]	is stimulated equally by both SAM and its analogue - SIN	
Nc1ncnc2c1ncn2[C@@H]1O[C@H](C[C@@H](N)CC[C@H](N)C(=O)O)[C@@H](O)[C@H]1O [SIN]		is stimulated equally by both SAM and its analogue - SIN
